These compounds were tested on androgen receptor (AR) in LNCaP and/or VCaP cells (assay: Androgen Receptor ELISA assay (AR degradation)). Conditions: LNCaP and/or VCaP cells; 5 hours incubation; media with R1881; read-out: DC50 Code* (degradation of AR ELISA).
Type: cell-based
Summary of the method: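 VCaP cells grown ≥3 days, then treated 5 h with compound in media containing 1 nM R1881 (10× stock). Cells lysed and AR quantified by sandwich ELISA (mouse AR detection Ab, HRP anti-mouse, TMB). DC50 and Dmax derived from AR degradation.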

DC50 [nM] | Structure (SMILES)
< 1 | COc1cc(O[C@H]2CC[C@H](NC(=O)c3cnc(N4CCC(CN(C(C)C)[C@H]5C[C@H](Oc6ccc7c(c6)C(=O)N(C6CCC(=O)NC6=O)C7)C5)CC4)nc3)CC2)ccc1C#N (some centres unmarked) [Compound 63, N-((1r,4r)-4-(4-cyano-3-methoxyphenoxy)cyclohexyl)-2-(4-((((1r,3r)-3-((2-(2,6-dioxopiperidin-3-yl)-3-oxoisoindolin-5-yl)oxy)cyclobutyl) (isopropyl)amino)methyl)piperidin-1-yl)pyrimidine-5-carboxamide]
< 1 | COc1cc(O[C@H]2CC[C@H](NC(=O)c3cnc(N4CCC(CN(C(C)=O)[C@H]5C[C@H](Oc6ccc7c(c6)C(=O)N(C6CCC(=O)NC6=O)C7=O)C5)CC4)cn3)CC2)ccc1C#N (some centres unmarked) [Compound 29, N-((1r,4r)-4-(4-cyano-3-methoxyphenoxy)cyclohexyl)-5-(4-((N-((1r,3r)-3-((2-(2,6-dioxopiperidin-3-yl)-1,3-dioxoisoindolin-5-yl)oxy)cyclobutyl)acetamido)methyl)piperidin-1-yl)pyrazine-2-carboxamide]
< 1 | N#Cc1ccc(O[C@H]2CC[C@H](NC(=O)c3cnc(N4CCC(CN(CC5COC5)[C@H]5C[C@H](Oc6ccc7c(c6)CN(C6CCC(=O)NC6=O)C7=O)C5)CC4)cn3)CC2)cc1Cl (some centres unmarked) [Compound 13, N-((1r,4r)-4-(3-chloro-4-cyanophenoxy)cyclohexyl)-5-(4-((((1r,3r)-3-((2-(2,6-dioxopiperidin-3-yl)-1-oxoisoindolin-5-yl)oxy)cyclobutyl) (oxetan-3-ylmethyl)amino)methyl)piperidin-1-yl)pyrazine-2-carboxamide]
< 1 | CCN(CC1CCN(c2cnc(C(=O)N[C@H]3CC[C@H](Oc4ccc(C#N)c(Cl)c4)CC3)cn2)CC1)[C@H]1C[C@H](Oc2ccc3c(c2)C(=O)N(C2CCC(=O)NC2=O)C3=O)C1 (some centres unmarked) [Compound 28, N-((1r,4r)-4-(3-chloro-4-cyanophenoxy)cyclohexyl)-5-(4-((((1r,3r)-3-((2-(2,6-dioxopiperidin-3-yl)-1,3-dioxoisoindolin-5-yl)oxy)cyclobutyl)(ethyl)amino)methyl)piperidin-1-yl)pyrazine-2-carboxamide]
> 100 | CC(C)N(CC1CCN(c2cnc(C(=O)N[C@H]3CC[C@H](Oc4ccc(C#N)c(Cl)c4)CC3)cn2)CC1)[C@H]1C[C@H](Oc2ccc3c(c2)C(=O)N([C@@H]2C(=O)NC(=O)C[C@H]2C)C3=O)C1 [Compound 75, N-((1r,4r)-4-(3-chloro-4-cyanophenoxy)cyclohexyl)-5-(4-((isopropyl((1S,3r)-3-((2-((3S,4R)-4-methyl-2,6-dioxopiperidin-3-yl)-1,3-dioxoisoindolin-5-yl)oxy)cyclobutyl)amino)methyl)piperidin-1-yl)pyrazine-2-carboxamide]
< 1 | COc1cc(O[C@H]2CC[C@H](NC(=O)c3cnc(N4CC(CN(C(C)C)[C@H]5C[C@H](Oc6ccc7c(c6)C(=O)N(C6CCC(=O)NC6=O)C7=O)C5)C4)nc3)CC2)ccc1C#N (some centres unmarked) [Compound 57, N-((1r,4r)-4-(4-cyano-3-methoxyphenoxy)cyclohexyl)-2-(3-((((1r,3r)-3-((2-(2,6-dioxopiperidin-3-yl)-1,3-dioxoisoindolin-5-yl)oxy)cyclobutyl) (isopropyl)amino)methyl)azetidin-1-yl)pyrimidine-5-carboxamide]

Structure (SMILES) | DC50 [nM]
CC(C)N(CC1CCN(c2ncc(C(=O)NC3CCC(Oc4ccc(C#N)c(Cl)c4)CC3)cn2)CC1)C1CCC(Oc2ccc3c(c2)C(=O)N(C2CCC(=O)NC2=O)C3=O)CC1 (centres unmarked) [Compound 59, N-((1r,4r)-4-(3-chloro-4-cyanophenoxy)cyclohexyl)-2-(4-((((1r,4r)-4-((2-(2,6-dioxopiperidin-3-yl)-1,3-dioxoisoindolin-5-yl)oxy)cyclohexyl) (isopropyl)amino)methyl)piperidin-1-yl)pyrimidine-5-carboxamide] | < 1

Same assay, conditions: degradation of AR ELISA in LNCaP and/or VCaP cells; Table 2C; read-out: DC50 Code*

DC50 [nM] | Structure (SMILES)
< 1 | Cc1cc(O[C@H]2C(C)(C)[C@H](NC(=O)c3ccc(N4CCC(CN(CCN5CCOCC5)[C@H]5C[C@H](Oc6ccc7c(c6)C(=O)N(C6CCC(=O)NC6=O)C7=O)C5)CC4)cc3)C2(C)C)cc(C)c1C#N (mixture of isomers) [compound 188, rac-N-((1r,3r)-3-(4-cyano-3,5-dimethylphenoxy)-2,2,4,4-tetramethylcyclobutyl)-4-(4-((((1r,3r)-3-((2-(2,6-dioxopiperidin-3-yl)-1,3-dioxoisoindolin-5-yl)oxy)cyclobutyl)(2-morpholinoethyl)amino)methyl)piperidin-1-yl)benzamide]
< 1 | CC1(C)[C@H](NC(=O)c2ccc(N3CCC(CCN4CC5CN(c6ccc7c(c6)C(=O)N(C6CCC(=O)NC6=O)C7=O)CC5C4)C3)cc2)C(C)(C)[C@H]1Oc1ccc(C#N)c(Cl)c1 (some centres unmarked) [compound 111, N-((1r,3r)-3-(3-chloro-4-cyanophenoxy)-2,2,4,4-tetramethylcyclobutyl)-4-(3-(2-(5-(2-(2,6-dioxopiperidin-3-yl)-1,3-dioxoisoindolin-5-yl)hexahydropyrrolo[3,4-c]pyrrol-2(1H)-yl)ethyl)pyrrolidin-1-yl)benzamide]
< 1 | Cc1cc(O[C@H]2C(C)(C)[C@H](NC(=O)c3cnc(N4CCC(CN(C)[C@H]5C[C@H](Oc6ccc7c(c6)C(=O)N(C6CCC(=O)NC6=O)C7=O)C5)CC4)nc3)C2(C)C)cc(C)c1C#N (some centres unmarked) [compound 86, N-((1r,3r)-3-(4-cyano-3,5-dimethylphenoxy)-2,2,4,4-tetramethylcyclobutyl)-2-(4-((((1r,3r)-3-((2-(2,6-dioxopiperidin-3-yl)-1,3-dioxoisoindolin-5-yl)oxy)cyclobutyl) (methyl)amino)methyl)piperidin-1-yl)pyrimidine-5-carboxamide]
< 1 | COc1cc(O[C@H]2C(C)(C)[C@H](NC(=O)c3ccc(N4CCC(CN(CC(F)F)[C@H]5C[C@H](Oc6cc(OC)c7c(c6)C(=O)N(C6CCC(=O)NC6=O)C7=O)C5)CC4)cc3)C2(C)C)ccc1C#N (some centres unmarked) [compound 235, N-((1r,3r)-3-(4-cyano-3-methoxyphenoxy)-2,2,4,4-tetramethylcyclobutyl)-4-(4-(((2,2-difluoroethyl)((1r,3r)-3-((2-(2,6-dioxopiperidin-3-yl)-7-methoxy-1,3-dioxoisoindolin-5-yl)oxy)cyclobutyl)amino)methyl)piperidin-1-yl)benzamide]
< 1 | CC(C)N(CC1CCN(c2ncc(C(=O)N[C@H]3C(C)(C)[C@H](Oc4ccc(C#N)c(Cl)c4)C3(C)C)cn2)CC1)[C@H]1C[C@H](Oc2ccc3c(c2)CN(C2CCC(=O)NC2=O)C3=O)C1 (some centres unmarked) [compound 80, N-((1r,3r)-3-(3-chloro-4-cyanophenoxy)-2,2,4,4-tetramethylcyclobutyl)-2-(4-((((1r,3r)-3-((2-(2,6-dioxopiperidin-3-yl)-1-oxoisoindolin-5-yl)oxy)cyclobutyl) (isopropyl)amino)methyl)piperidin-1-yl)pyrimidine-5-carboxamide]
< 1 | CCN(C1CCN(c2ccc(C(=O)N[C@H]3C(C)(C)[C@H](Oc4cc(C)c(C#N)c(C)c4)C3(C)C)cc2)CC1)[C@H]1C[C@H](Oc2ccc3c(c2)C(=O)N(C2CCC(=O)NC2=O)C3=O)C1 (mixture of isomers) [compound 173, rac-N-((1r,3r)-3-(4-cyano-3,5-dimethylphenoxy)-2,2,4,4-tetramethylcyclobutyl)-4-(4-(((1r,3r)-3-((2-(2,6-dioxopiperidin-3-yl)-1,3-dioxoisoindolin-5-yl)oxy)cyclobutyl) (ethyl)amino)piperidin-1-yl)benzamide]
< 1 | Cc1cc(O[C@H]2C(C)(C)[C@H](NC(=O)c3ccc(CN4CCOC[C@@H]4CN4CCN(c5ccc6c(c5)C(=O)N(C5CCC(=O)NC5=O)C6=O)CC4)cc3)C2(C)C)cc(C)c1C#N (stereo partly drawn) [compound 196, N-((1r,3S)-3-(4-cyano-3,5-dimethylphenoxy)-2,2,4,4-tetramethylcyclobutyl)-4-(((3S)-3-((4-(2-(2,6-dioxopiperidin-3-yl)-1,3-dioxoisoindolin-5-yl)piperazin-1-yl)methyl)morpholino)methyl)benzamide]

Structure (SMILES) | DC50 [nM]
COc1cc(O[C@H]2C[C@H](OC3CCN(c4ccc(C(=O)N[C@H]5C(C)(C)[C@H](Oc6cc(C)c(C#N)c(C)c6)C5(C)C)cc4)CC3)C2)cc2c1C(=O)N(C1CCC(=O)NC1=O)C2=O (mixture of isomers) [compound 197, rac-N-((1r,3r)-3-(4-cyano-3,5-dimethylphenoxy)-2,2,4,4-tetramethylcyclobutyl)-4-(4-((1r,3r)-3-((2-(2,6-dioxopiperidin-3-yl)-7-methoxy-1,3-dioxoisoindolin-5-yl)oxy)cyclobutoxy)piperidin-1-yl)benzamide] | < 1

Same assay, conditions: degradation of AR ELISA in LNCaP and/or VCaP cells; read-out: DC50 Code*

Structure (SMILES) | DC50 [nM]
COc1cc(O[C@H]2C[C@H](N(CC(F)F)CC3CCN(c4cnc(C(=O)N[C@H]5C(C)(C)[C@H](Oc6cc(C)c(C#N)c(C)c6)C5(C)C)cn4)CC3)C2)cc2c1C(=O)N(C1CCC(=O)NC1=O)C2=O (some centres unmarked) [compound 246, N-((1r,3r)-3-(4-cyano-3,5-dimethylphenoxy)-2,2,4,4-tetramethylcyclobutyl)-5-(4-(((2,2-difluoroethyl)((1r,3r)-3-((2-(2,6-dioxopiperidin-3-yl)-7-methoxy-1,3-dioxoisoindolin-5-yl)oxy)cyclobutyl)amino)methyl)piperidin-1-yl)pyrazine-2-carboxamide] | 10 to 100
CC1(C)[C@H](NC(=O)c2ccc(N3CCC(CO[C@H]4C[C@H](Oc5ccc6c(c5)C(=O)N(C5CCC(=O)NC5=O)C6=O)C4)CC3)cc2)C(C)(C)[C@H]1Oc1ccc(C#N)c(Cl)c1 (some centres unmarked) [compound 245, N-((1r,3r)-3-(3-chloro-4-cyanophenoxy)-2,2,4,4-tetramethylcyclobutyl)-4-(4-(((1r,3r)-3-((2-(2,6-dioxopiperidin-3-yl)-1,3-dioxoisoindolin-5-yl)oxy)cyclobutoxy)methyl)piperidin-1-yl)benzamide] | 1 to 10

— patent publication US20260053932A1, “COMPOUNDS AND METHODS FOR THE TARGETED DEGRADATION OF ANDROGEN RECEPTOR AND ASSOCIATED METHODS OF USE” (Arvinas Operations, Inc., priority 2020, published 2026)
